# Several values for one entry are separate records, joined by “and”; a condition that tells them apart may be missing. Identical values can stand only once. Like-named read-outs stand apart in the source and are kept apart here.
# Columns and labels:
# MiaPaCA-2 = assay: CellTiterGlo cell viability, MiaPaCA-2 cells; assay type: cell-based; settings: Homo sapiens, MIA PaCa-2, 72 h
# Description: (§1) The IC50 values for (R)-H4CBD, (S)-H4CBD, H4CBDV racemic mixture, and bortezomib were determined. Compound treatment of cells started one day after seeding with a final DMSO concentration of 0.1% and was performed by nanodrop-dispensing using a Tecan Dispenser. 0.1% DMSO (solvent) and Staurosporine (1,0E-05M) served as high control (100% viability) and low control (0% viability), respectively. For the assays, cells were seeded in white cell culture-treated flat and clear bottom multiwell plates and incubated at 37° C. overnight before compounds were added. After incubation for 72 h at 37° C. at 5% or 10% CO2 dependent on the medium, cell plates were equilibrated to room temperature for one hour, CellTiterGlo reagent (Promega) was added and luminescence was measured approximately an hour later using a luminometer.
# (§2) Raw data were converted into percent cell viability relative to the high and low control, which were set to 100% and 0%, respectively. IC50 calculation was performed using GraphPad Prism software with a variable slope sigmoidal response fitting model using 0% viability as bottom constraint and 100% viability as top constraint. IC50 results in PANC-1, MIA-PaCa2, and AsPC-1 cells for (R)-H4CBD, (S)-H4CBD, H4CBDV racemic mixture, and bortezomib are shown in FIGS. 10-12 and Table 2
# [1] = Potential maximum tolerated dosages in mice; assay type: in vivo
# Description: To determine potential maximum tolerated dosages, 3.12, 6.25, 10, and 12.5 mg/kg of CCL-106, for 2, 2, 1, and 1 doses respectively, were administered to mice. […] Mice were administered high doses of CCL-104 and CCL-106.
# [2] = Pharmacokinetics in CD1 male mice (plasma, HPLC-MS); assay type: in vivo; settings: for MRT inf: read-out: MRTInf—obs; for Vd: read-out: Vss—obs
# Description: Formulation and dosing information for pharmacokinetic data is provided in Table 5 (CD=beta-cyclodextrin). The solutions were sonicated, vortexed, and slightly heated resulting in a clear purple liquid.
# Pharmacokinetic data was produced by administering CD1 male mice with CCL-104 (H4CBD) or CCL-106 (H4CBDV). Each compound was formulated and administered as shown in Example 3. Plasma was sampled from the IV administered mice at 5 min, 15 min, 30 min, 1 hr, 2 hr, 4 hr post dose. Plasma was sampled from the PO administered mice at 15 min, 30 min, 1 hr, 2 hr, 4 hr, 6 hr post dose. The desired serial concentrations of working solutions were achieved by diluting stock solution of analyte with 50% acetonitrile in water solution. 10 μL of working solutions (0.5, 1, 2, 5, 10, 50, 100, 500, 1000 ng/mL) were added to 10 μL of the blank male CD1 mice plasma to achieve calibration standards of 0.5-1000 ng/mL (0.5, 1, 2, 5, 10, 50, 100, 500, 1000 ng/mL) in a total volume of 20 μL. Six quality control samples at 1 ng/mL, 2 ng/mL, 5 ng/mL, 10 ng/mL, 50 ng/mL and 800 ng/mL for plasma were prepared independently of those used for the calibration curves. These QC samples were prepared on the day of analysis in the same way as calibration standards. 20 μL standards, 20 μL QC samples and 20 μL unknown samples (10 μL plasma with 10 μL blank solution) were added to 200 μL of methanol containing IS mixture for precipitating protein respectively. Then the samples were vortexed for 30 seconds, then centrifuged at 4° C., 4,000 rpm for 15 min. The supernatant was diluted with water at a ratio of 1:2. 15 μL of the diluted supernatant was injected into the LC/MS/MS system for quantitative analysis.
# AsPC-1 = assay: CellTiterGlo cell viability, AsPC-1 cells; assay type: cell-based; settings: Homo sapiens, ASPC1, 72 h
# Description: as §1, §2
# MiaPaca cells xenograft = assay: Miapaca cell xenograft study; assay type: in vivo, SCID mice
# Description: Animal housing and environment: Female SCID mice will be housed in individually ventilated cages in a controlled environment (temperature 22±2° C., humidity 30-70%, and 12 h light/12 h dark cycle). Acclimatization of animals: Mice will be acclimated for 2-4 days. For the study, the required number of SCID mice will be allocated and housed separately in the experimental area. Food and water for animals: The mice will have access to commercially available sterile feed pellets and sterile potable water ad libitum. Identification of animals: 4 mice will be housed per individually ventilated cage. Each animal in the cage will be identified by ear punch. These cages will be numbered thus making the animal identification easy. Ethical approvals: All animal experiments will be carried out in accordance with the guidelines of the guide for animal welfare and with the approval of the IACUC WSU. Population per group: 9 mice per group (6 for efficacy and 3 for residual tumor analysis).
# Miapaca cells were xenograft into the mice. 7 days after transplantation, the mice were untreated (administered a vehicle control), administered CCL-104 intravenously (15.4 mg/kg) or orally (31 mg/kg), or administered CCL-106, intravenously (20 mg/kg) or orally (31 mg/kg). At necropsy, tumors were excised for IHC, immunoblotting and RNA isolation for suppression proliferation related signaling molecules.
# [3] = IV 10 mg/kg, individual mouse, 10 mg/kg
# [4] = PO 10 mg/kg, individual mouse, 10 mg/kg
# [5] = male, CD1, mouse, plasma, iv, 10 mg/kg, IV 10 mg/kg, Mean of 4 mice
# [6] = male, CD1, mouse, plasma, iv, 10 mg/kg, IV 10 mg/kg, individual mouse
# [7] = male, CD1, mouse, plasma, po, 10 mg/kg, PO 10 mg/kg, Mean of 4 mice
# [8] = male, CD1, mouse, plasma, po, 10 mg/kg, PO 10 mg/kg, individual mouse
structure (smiles),measurement,setting,value
"CCCc1cc(O)c(C2CC(C)CCC2C(C)C)c(O)c1 (racemic) [CCL-106, hexahydrocannabidivarin]",IC50,MiaPaCA-2,530 nM
same,toxicity observed,"[1]; 12.5 mg/kg, mouse",acute toxicity for CCL-106 (strong tremors and weight loss)
same,toxicity observed,"[1]; 15.63 mg/kg dose at each of days 5, 6, and 7, mouse",seizure like symptoms but recovered more quickly (around 30 minutes)
same,toxicity observed,"[1]; 31.25 mg/kg dose, mouse",stop moving after about 2 minutes and have seizure like symptoms
same,toxicity observed,"[1]; 39.06 mg/kg dose, mouse",killed a mouse immediately
same,toxicity observed,"[1]; 46.87 mg/kg dose, mouse",killed a mouse immediately
same,toxicity observed,"[1]; 3.12, 6.25, and 10 mg/kg dose, mice",No toxicity was observed
same,tail vein toxicity,"[1]; daily 31.25 mg/kg doses, mouse",displayed tail vein toxicity on day 2
same,AUClast/D (h*mg/mL),"[2]; IV 10 mg/kg, Mean of 4 mice",184 h*ng/mL per mg/kg
same,AUC—% Extrap—obs,"[2]; IV 10 mg/kg, Mean of 4 mice",18.4%
same,Cl_obs,"[2]; IV 10 mg/kg, Mean of 4 mice",74.7 mL/min/kg
same,AUCInf,[2]; [3],2519 ng·h/mL and 2031 ng·h/mL and 2513 ng·h/mL
same,AUClast,[2]; [3],2047 ng·h/mL and 1630 ng·h/mL and 1952 ng·h/mL
same,AUC—% Extrap—obs,[2]; [3],12.7% and 18.7% and 19.8% and 22.3%
same,C0,[2]; [3],4701 ng/mL and 5792 ng/mL and 5062 ng/mL
same,Cl_obs,[2]; [3],84.1 mL/min/kg and 66.2 mL/min/kg and 82.1 mL/min/kg and 66.3 mL/min/kg
same,MRTInf—obs,[2]; [3],2.11 h and 2.16 h and 2.49 h
same,T1/2,[2]; [3],2.14 h and 2.50 h and 2.99 h
same,Vss—obs,[2]; [3],8.38 L/kg and 10.7 L/kg and 9.89 L/kg
same,AUClast/D (h*mg/mL),"[2]; PO 10 mg/kg, Mean of 4 mice",31.6 h*ng/mL per mg/kg
same,AUC—% Extrap—obs,"[2]; PO 10 mg/kg, Mean of 4 mice",25.7%
same,AUCInf,[2]; [4],404 ng·h/mL and 453 ng·h/mL and 479 ng·h/mL
same,AUClast,[2]; [4],308 ng·h/mL and 414 ng·h/mL and 226 ng·h/mL
same,AUC—% Extrap—obs,[2]; [4],18.1% and 23.7% and 8.47% and 52.7%
same,Cmax,[2]; [4],233 ng/mL and 177 ng/mL and 352 ng/mL and 127 ng/mL
same,F (%),[2]; [4],16.7% and 20.0% and 12.3%
same,MRTInf—obs,[2]; [4],3.27 h and 4.01 h and 2.21 h and 10.3 h
same,T1/2,[2]; [4],3.20 h and 3.31 h and 2.04 h and 8.02 h
same,AUC(0-inf),[2]; [5],2260 ng·h/mL
same,AUC(0-t),[2]; [5],1840 ng·h/mL
same,half-life,[2]; [5],2.32 h
same,C0,"[2]; male, CD1, mouse, plasma, iv, 10 mg/kg, IV 10 mg/kg, Mean of 4 mice, read-out: C0",4820 ng/mL
same,MRT inf,[2]; [5],2.1 h
same,Vd,[2]; [5],9.3 L/kg
same,AUC(0-inf),[2]; [6],1980 ng·h/mL
same,AUC(0-t),[2]; [6],1730 ng·h/mL
same,half-life,[2]; [6],1.63 h
same,C0,"[2]; male, CD1, mouse, plasma, iv, 10 mg/kg, IV 10 mg/kg, individual mouse, read-out: C0",3720 ng/mL
same,MRT inf,[2]; [6],1.62 h
same,Vd,[2]; [6],8.18 L/kg
same,AUC(0-inf),[2]; [7],429 ng·h/mL
same,AUC(0-t),[2]; [7],316 ng·h/mL
same,Tmax,[2]; [7],0.25 h
same,bioavailability,[2]; [7],16.5%
same,half-life,[2]; [7],4.14 h
same,Cmax,"[2]; male, CD1, mouse, plasma, po, 10 mg/kg, PO 10 mg/kg, Mean of 4 mice, read-out: Cmax",222 ng/mL
same,MRT inf,[2]; [7],4.9 h
same,AUC(0-inf),[2]; [8],383 ng·h/mL
same,AUC(0-t),[2]; [8],314 ng·h/mL
same,Tmax,[2]; [8],0.25 h
same,bioavailability,[2]; [8],16.9%
same,IC50,AsPC-1,1050 nM
same,reduction of final tumor weight (dot graph),MiaPaca cells xenograft; IV 20 mg/kg,27.0%
same,reduction of mean of the final tumor weight (bar graph),MiaPaca cells xenograft; IV 20 mg/kg,24.2%
same,reduction of final tumor weight (dot graph),MiaPaca cells xenograft; PO 31 mg/kg,50.8%
same,reduction of mean of the final tumor weight (bar graph),MiaPaca cells xenograft; PO 31 mg/kg,50.79%
same,tumor size compared to the untreated control,"MiaPaca cells xenograft; treated intravenously or orally, FIGS. 54-55",smaller tumors compared to the untreated control
